“Also recorded” adds a separate entry of the source. Like-named read-outs stand apart in the source and are kept apart here.
Key:
NMDA receptors (NMDARs) = assay: Whole-cell patch-clamp of NMDA-activated currents in primary cultures of cortical neurons; type: cell-based, rat
Protocol: All manipulations on animals were performed in accordance with the guide of the Federation for Laboratory Animal Science Associations and were approved by the Animal Care and Use Committees of Sechenov Institute. Briefly, 16 days pregnant Wistar rats (14 female rats used in this study, supplied by the Sechenov Institute Animal Facility) were placed in a plastic box connected to a CO2 tank by a tube and then sacrificed by 1 min CO2 inhalation. Fetuses were removed and then primary cultures of rat cortical neurons were prepared using conventional procedures as described earlier[27],[66]. Neurons were grown in Neurobasal culture medium supplemented with B-27 (Gibco-Invitrogen, UK) on glass coverslips coated with poly-D-lysine and were used for experiments after 10–15 days in culture[66],[67].
Whole-cell currents were recorded from cultured rat cortical neurons using a MultiClamp 700B patch-clamp amplifier with Digidata 1440 A controlled by pClamp v10.2 software (Molecular Devices). Recordings were 8-order low-pass filtered at 200 Hz and the acquisition rate was 20000 samples per second. Solution exchange was performed by means of a fast solution application system as described earlier. Unless otherwise specified, the external bathing solution contained (in mM): 140 NaCl; 2.8 KCl; 1.0 CaCl2; 10 HEPES, at pH 7.2–7.4, osmolarity 310 mOsm. The intrapipette solution contained (in mM): 120 CsF, 10 CsCl, 10 EGTA, and 10 HEPES, osmolarity 300 mOsm[14], with pH adjusted to 7.4 with CsOH. Patch pipettes of 2–4 MΩ were pulled from Sutter BF150-89-10 borosilicate capillaries. Experiments were performed at 23–25 °C. Under control conditions, neurons were voltage clamped at −70 mV. Data are reported without corrections for liquid junction potential, which was measured as −11 mV. To activate NMDARs, 100 µM NMDA and 30 µM glycine were co-applied. Some experiments were performed on neurons loaded with BAPTA. To load BAPTA, cortical neuron cultures were incubated in bathing solution containing 10 µM BAPTA-AM for 2 hours.
Whole-cell membrane currents activated by NMDA were measured at steady state. The fraction of blocked current was calculated as 1 − Ib/Ic, where Ic is the amplitude of current activated by agonists and Ib is the amplitude of current activated by agonists in the presence of blocker.
Amplitudes of currents measured in the presence of blocker were normalized to maximal current response in control (Ic). […]
The obtained values were fitted with the Woodhull equation[36]:6 IC50(Vm)=IC50(0mV)⋅exp(VmzδF/RT) where IC50(0 mV) and δ were set as free parameters. […] For Faraday constant, gas constant and room temperature of 25 °C the RT/F ≈ 25.7 mV.
The rise time of currents activated by the testing NMDA + Gly application in trapping channel block experiments was fit in ClampFit (pClamp, Axon Instruments) using the double exponential function:7 I=I1·exp(−t/τ1)+I2⋅exp(−t/τ2)−C where I1 and I2 are amplitudes of the exponential and τ1 and τ2 are time constants of the exponential and C equals I1 + I2 + Ib.

NMDARs = conditions: cited from earlier work
[1] = cited from earlier work
GluN1/GluN2A NMDARs = test system: GluN1/GluN2A NMDARs; parameters: method as in PMID 28877967; conditions: Ca2+-dependent manner; not GluN1/GluN2B receptors; cited from earlier work

CN(C)CCC=C1c2ccccc2CCc2ccccc21 [ATL, amitriptyline]
concentrations showing voltage-dependent open-channel block of NMDARs (NMDA receptors (NMDARs)): > 70 µM | decrease of IC50 per 1 mM increase of external [Ca2+] (NMDA receptors (NMDARs)): roughly 5 fold | voltage dependence of block of NMDAR currents (NMDA receptors (NMDARs); 10 μM ATL, 1 mM Ca2+, −70 mV vs −30 mV): voltage dependence was not observed; also recorded: voltage-independent | Ca2+ dependence of inhibition of NMDAR currents (NMDA receptors (NMDARs); 10 μM ATL, −70 mV, 2 mM vs 0.25 mM Ca2+): far more pronounced in 2 mM Ca^2+- than in 0.25 Ca^2+- containing media | voltage dependence of block of NMDAR currents (NMDA receptors (NMDARs); 20 μM ATL, 2 mM Ca2+, −40 mV to +40 mV): did not find any voltage dependence | effect on closed NMDARs (ATL applied prior to NMDA) (NMDA receptors (NMDARs); 100 μM ATL, 0.25 mM or 2 mM Ca2+, −70 mV): did not significantly affect currents activated by NMDA | voltage dependence of block of NMDAR currents (NMDA receptors (NMDARs); 100 μM ATL, 1 mM Ca2+, −70 mV vs −30 mV): depended on membrane voltage; also recorded: voltage-dependent | type of open-channel block (trapping protocol) (NMDA receptors (NMDARs); 200 µM ATL, 0.25 mM Ca2+, −70 mV): did not cause tail currents; also recorded: partial trapping | τs, slow rise time constant of test current (ATL unblock) (NMDA receptors (NMDARs); 200 µM ATL, washout delay 0.5 s, −70 mV, 0.25 mM Ca2+): 11 ± 3.2 s | τs, slow rise time constant of test current (ATL unblock) (NMDA receptors (NMDARs); 200 µM ATL, washout delay 1 s, −70 mV, 0.25 mM Ca2+): 13 ± 5.7 s | τs, slow rise time constant of test current (ATL unblock) (NMDA receptors (NMDARs); 200 µM ATL, washout delay 2 s, −70 mV, 0.25 mM Ca2+): 13.2 ± 4.0 s | τs, slow rise time constant of test current (ATL unblock) (NMDA receptors (NMDARs); 200 µM ATL, washout delay 4 s, −70 mV, 0.25 mM Ca2+): 15 ± 2.9 s | voltage shift giving an e-fold change of IC50 (NMDA receptors (NMDARs); 0.25 mM Ca2+): 50 mV | δ, fraction of the membrane electric field (Woodhull model) (NMDA receptors (NMDARs); 0.25 mM Ca2+, Eq. 6): 0.51 | fraction of ATL inhibition of NMDAR currents (1-Ib/Ic) (NMDA receptors (NMDARs); ATL 10 μM, −30 mV, [Ca2+] 0.25 mM): 0.12 ± 0.05 | fraction of ATL inhibition of NMDAR currents (1-Ib/Ic) (NMDA receptors (NMDARs); ATL 10 μM, −30 mV, [Ca2+] 2 mM): 0.30 ± 0.05 | fraction of ATL inhibition of NMDAR currents (1-Ib/Ic) (NMDA receptors (NMDARs); ATL 10 μM, −70 mV, [Ca2+] 0.25 mM): 0.13 ± 0.06 | fraction of ATL inhibition of NMDAR currents (1-Ib/Ic) (NMDA receptors (NMDARs); ATL 10 μM, −70 mV, [Ca2+] 2 mM): 0.42 ± 0.04 | fraction of ATL inhibition of NMDAR currents (1-Ib/Ic) (NMDA receptors (NMDARs); ATL 100 μM, −30 mV, [Ca2+] 0.25 mM): 0.40 ± 0.07 | fraction of ATL inhibition of NMDAR currents (1-Ib/Ic) (NMDA receptors (NMDARs); ATL 100 μM, −30 mV, [Ca2+] 2 mM): 0.35 ± 0.04 | fraction of ATL inhibition of NMDAR currents (1-Ib/Ic) (NMDA receptors (NMDARs); ATL 100 μM, −70 mV, [Ca2+] 0.25 mM): 0.79 ± 0.05 | fraction of ATL inhibition of NMDAR currents (1-Ib/Ic) (NMDA receptors (NMDARs); ATL 100 μM, −70 mV, [Ca2+] 2 mM): 0.79 ± 0.03 | IC50 (NMDA receptors (NMDARs); [Ca2+] 2–4 mM, read-out: IC50 values at physiological extracellular [Ca2+]): 0.7 to 7 µM | fraction of ATL inhibition of NMDAR currents (1-Ib/Ic) (NMDA receptors (NMDARs); co-application of agonists and 100 μM ATL, −70 mV, [Ca2+] 0.25 mM): 0.85 ± 0.06 | fraction of ATL inhibition of NMDAR currents (1-Ib/Ic) (NMDA receptors (NMDARs); co-application of agonists and 100 μM ATL, −70 mV, [Ca2+] 2 mM): 0.85 ± 0.05 | IC50 (NMDA receptors (NMDARs); extrapolated to 0 mM Ca2+, −70 mV, read-out: IC50 at [Ca2+] = 0, single exponential approximation): 91 µM | IC50 (NMDA receptors (NMDARs); extrapolated to 0 mV, 0.25 mM Ca2+, read-out: IC50 (0 mV), fit with Woodhull equation (Eq. 6)): 220 µM | [Ca2+] shift giving an e-fold change of IC50 (b value), optimized (NMDA receptors (NMDARs); optimized by fitting all data with IC50(Vm,[Ca2+]) equation): 690 µM | fraction of ATL inhibition of NMDAR currents (1-Ib/Ic) (NMDA receptors (NMDARs); pre-application of 100 μM ATL, −70 mV, [Ca2+] 0.25 mM): 0.12 ± 0.01 | fraction of ATL inhibition of NMDAR currents (1-Ib/Ic) (NMDA receptors (NMDARs); pre-application of 100 μM ATL, −70 mV, [Ca2+] 2 mM): 0.17 ± 0.03 | IC50 (NMDA receptors (NMDARs); read-out: IC50 for ATL inhibition of NMDAR currents, −30 mV, 0.25 mM Ca2+): 129 µM | IC50 (NMDA receptors (NMDARs); read-out: IC50 for ATL inhibition of NMDAR currents, −70 mV, 0.25 mM Ca2+ in bathing solution, 100 μM NMDA + 30 μM Gly): 63 ± 9.3 µM | IC50 (NMDA receptors (NMDARs); read-out: IC50 for ATL inhibition of NMDAR currents, −70 mV, 0.5 mM Ca2+, 100 μM NMDA + 30 μM Gly): 37.6 ± 7.7 µM | IC50 (NMDA receptors (NMDARs); read-out: IC50 for ATL inhibition of NMDAR currents, −70 mV, 1 mM Ca2+, BAPTA-loaded neurons): 106 ± 9.5 µM | IC50 (NMDA receptors (NMDARs); read-out: IC50 for ATL inhibition of NMDAR currents, −70 mV, 1 mM Ca2+, control (intact) neurons): 21.6 ± 8.7 µM | IC50 (NMDA receptors (NMDARs); read-out: IC50 for ATL inhibition of NMDAR currents, −70 mV, 2 mM Ca2+): 4.9 ± 1 µM | IC50 (NMDA receptors (NMDARs); read-out: IC50 for ATL inhibition of NMDAR currents, −70 mV, 4 mM Ca2+): 0.72 µM | IC50 (NMDA receptors (NMDARs); read-out: IC50 for ATL inhibition of NMDAR currents, −100 mV, 0.25 mM Ca2+): 34.2 ± 9.8 µM | [Ca2+] shift giving an e-fold change of IC50 (b value) (NMDA receptors (NMDARs); single exponential fit of IC50 vs [Ca2+], −70 mV): 630 µM | Hill coefficient h (NMDA receptors (NMDARs); −70 mV, 0.25 mM Ca2+): 1.4 ± 0.1 | rate constant of binding (kon) (NMDA receptors (NMDARs); −70 mV, 0.25 mM Ca2+, Eq. 3): 1600 ± 90 M⁻¹ s⁻¹ | rate constant of dissociation (koff) (NMDA receptors (NMDARs); −70 mV, 0.25 mM Ca2+, Eq. 4): 0.204 ± 0.005 s⁻¹ | Kd (NMDA receptors (NMDARs); −70 mV, 0.25 mM Ca2+, Eq. 5, read-out: apparent equilibrium dissociation constant (Kd = koff/kon)): 128 ± 7.8 µM | Hill coefficient h (NMDA receptors (NMDARs); −70 mV, 0.5 mM Ca2+): 1.5 ± 0.1 | Hill coefficient h (NMDA receptors (NMDARs); −70 mV, 1 mM Ca2+): 1.6 ± 0.5 | Hill coefficient h (NMDA receptors (NMDARs); −70 mV, 2 mM Ca2+): 1.2 ± 0.1 | Hill coefficient h (NMDA receptors (NMDARs); −70 mV, 4 mM Ca2+): 1.5 ± 0.2 | ATL concentrations required for the NMDAR channel block (NMDARs): 15 to 60 µM | therapeutic window for ATL concentrations in the blood plasma ([1]; blood plasma): 0.3 to 1 µM | ATL concentration in brain tissue ([1]; brain tissue): ≤ 10 µM

Br.Br.NCCCCCNCC12CC3CC(CC(C3)C1)C2 [IEM-1754, N-(tricyclo[3.3.1.13,7]dec-1-ylmethyl)-1,5-pentanediamine dihydrobromide]
Ca2+ dependence of block of NMDA-activated currents (NMDA receptors (NMDARs); 10 μM IEM-1754, −70 mV, 2 mM vs 0.25 mM Ca2+): resistant to a 4-fold increase of [Ca^2+]

NC12CC3CC(CC(C3)C1)C2 [amantadine]
δ, fraction of the membrane electric field (NMDARs): 0.72

CNC1(c2ccccc2Cl)CCCCC1=O (centres unmarked) [ketamine]
sensitivity of NMDAR block to external [Ca2+] (NMDARs): no sensitivity to changes in external [Ca^2+] | δ, fraction of the membrane electric field (NMDARs): 0.55

CC12CC3CC(C)(C1)CC(N)(C3)C2 [memantine]
δ, fraction of the membrane electric field (NMDARs; by different estimates): 0.65–0.91 | effect on recovery from desensitization (GluN1/GluN2A NMDARs): slows the rate of recovery from desensitization of GluN1/GluN2A NMDARs

Source: article PMC6923474 (Scientific Reports, 2019)
